Results as given in patent publication US7704686B2, “Methods of identifying immunoregulatory agents, immunoregulatory agents, and uses thereof” (Toudai TLO, Ltd., priority 2003, dated 2010).

What was measured:
Format in all cases: cell-based, human
[1] = test system: caveolin-1; assay: Western blot of caveolin-1 in siRNA-transfected monocytes; conditions: 48 hrs after transfection, HVJ-E vector
Description: Lysates were generated with RIPA lysis buffer (1% NP-40, 0.5% sodium deoxycholate, 0.1% SDS, 5 mM EDTA, 10 mM Tris-HCl (pH 7.4), 0.15 M NaCl, 1 mM PMSF, 0.5 mM NaF, 10 μg/ml aprotinin and 0.02 mM Na3VO4) from 1.0×10^7 of THP-1 cells incubated with recombinant soluble CD26 (rsCD26) or 1.0×10^7 of TT-loaded monocytes stimulated with rsCD26-coated beads. Then, lysates were clarified by 15,000×g for 30 min. Immunoprecipitates (IPs) were performed by incubating lysates with 2 μg of control immunoglobulins (Ig) and protein G-sepharose beads (Amersham Pharmacia) at 4° C. for 1 h. After centrifugation, supernatants were incubated with 2 μg of specific Ig at 4° C. for 2 h, followed by addition of protein G-sepharose beads for an overnight incubation. After washing four times with RIPA lysis buffer, beads were submitted to SDS-PAGE and Western blot analysis.
To design target-specific siRNA duplexes, the present inventors selected sequences of the type AA(N19) (N, any nucleotide) from the open reading frame of human caveolin-1 (accession number=NM 001753) (Elbashir, et al., 2001). Moreover, the inventors added the sequences to the 2-nucleotide 3′ overhangs of 2′-deoxythymidine (dTdT), in order to generate a symmetric duplex with respect to the sequence composition of the sense and antisense 3′ overhangs. These symmetric 3′ overhangs were reported to help to ensure that the siRNA were formed with approximately equal ratios of sense and antisense target RNA-cleaving siRNA (Elbashir, et al., 2001). Therefore, the present inventors selected two target sequences from 81 to 101 (ss1) and […] (ss2) downstream of the start codon of caveolin-1 mRNA (sense1 siRNA (ss1-siRNA): 5′[…] CAGACdTdT (SEQ ID NO: 6), and sense2 siRNA (ss2-siRNA): 5′ AAGGAGA […] dTdT (SEQ ID NO: 7)). Moreover, mis-siRNA at 4 nucleotides was prepared to examine non-specific effects of siRNA duplexes (mis-siRNA: 5′ […] GCAGACdTdT (SEQ ID NO: 8)). To visualize the efficiency of transfection, the inventors also prepared Texas red-conjugated missense siRNA (mis-siRNA-TR). […]

[2] = test system: CD86; assay: Flow cytometry of surface CD86 on TT-loaded monocytes stimulated with CD26-coated beads; conditions: siRNA-transfected monocytes, stimulated with CD26 wt-coated beads
Description: Freshly purified monocytes were cultured in Macrophage-SFM media for 24 h to diminish the effect of serum, and were preincubated with TT at a concentration of 0.5 μg/ml for an additional 24 h. After being washed with PBS, 1.0×10^6 of TT-loaded monocytes were stimulated for indicated periods with […] particles of polystyrene latex beads (Molecular Probes) coated with rsCD26 wt or rsCD26 del 201-211 (1.0 μg/ml). Stimulated monocytes were subjected to confocal laser microscopy, immunoprecipitation assay, Western blotting analysis, or flow cytometry (FCM).
In experiments assessing the expression of CD86 on purified monocytes after preincubation with or without TT (0.5 μg/ml) for 24 hours, following incubation with rsCD26-coated beads for 24 h, FITC-conjugated CD86 mAb (10 μg/ml) were used with PE-conjugated anti-CD14 (10 μg/ml) and Cy Chrome-conjugated CD45 (10 μg/ml) to gate exclusively on the monocyte population. In experiments assessing the effect of siRNA against caveolin-1 in monocytes, purified monocytes were transfected with siRNA as described below, following incubation with rsCD26-coated beads for 24 h, and stained as described above.
(§1) Flow-cytometric analysis of 10,000 viable cells was conducted on Becton-Dickinson FACScalibur. Each experiment was repeated at least three times, and the results were provided in the form of a histogram of a representative experiment, or increased mean percent±standard error (SE) of mean-fluorescent intensity (MFI), compared to control or untreated cells.
To design target-specific siRNA duplexes, the present inventors selected sequences of the type AA(N19) (N, any nucleotide) from the open reading frame of human caveolin-1 (accession number=NM 001753) (Elbashir, et al., 2001). Moreover, the inventors added the sequences to the 2-nucleotide 3′ overhangs of 2′-deoxythymidine (dTdT), in order to generate a symmetric duplex with respect to the sequence composition of the sense and antisense 3′ overhangs. […]

[3] = test system: conjugation of activated T cells and TT-loaded monocytes; assay: T cell-APC conjugation assay; conditions: monocytes preincubated with Filipin 30 min, then with or without TT
Description: For T cell-APC conjugation assay as described elsewhere (Lee, et al., 2002), 1.0×10^5 of activated T cells were mixed with 1.0×10^5 of purified monocytes that had been pulsed with or without TT (0.5 μg/ml for indicated time periods), with further centrifugation. Thirty minutes later, cell mixtures were attached to microslide glass (Matsunami Glass Inc., Tokyo, Japan) coated with poly-L-lysine, and fixed with 4% paraformaldehyde in PBS for 15 min at room temperature. Cells were blocked with mouse and rabbit Ig isotypes (1 μg/ml) for 30 min at 4° C., followed by incubation with anti-CD26 mAb and anti-caveolin-1 rabbit pAb (each of 10 μg/ml) for 60 min at 4° C., then washed with ice-cold PBS twice and incubated with FITC conjugated anti-mouse Ig and Texas red conjugated anti-rabbit Ig antibodies (1:200) for 60 min at 4° C. Cells were mounted in coverslips with Antifade Prolong kit. Conjugates were first identified by direct observation under differential interference contrast and then confirmed by detecting the green fluorescence of anti-CD26 mAb in T cells and the red fluorescence of anti-caveolin-1 pAb in monocytes. The proportion of T cell-APC conjugation was calculated by random choice of 500 different cells in a coverslips from five independent experiments. […]

[4] = test system: caveolin-1 on cell surface of monocytes; assay: Flow cytometric detection of cell surface caveolin-1 on monocytes; conditions: Filipin 1.0 μg/ml preincubation 30 min, then with or without TT
Description: For assessment of cell surface caveolin-1 exposure, after purified monocytes were treated with TT (0.5 μg/ml) for 0, 6, 12, 24, and 48 h, cells were washed with ice-cold PBS three times, and stained with anti-caveolin-1 antibody (5 μg/ml) for 60 min at 4° C., followed by staining with FITC conjugated anti-rabbit Ig antibody (1:200) for 60 min at 4° C. To disturb caveolae, purified monocytes were treated with Filipin (1.0 μg/ml, Sigma-Aldrich) for 30 min at 37° C. Cells were then subjected to TT loading and to staining caveolin-1 as described above.
as §1

| Molecule | caveolin-1 expression in monocytes (knock down) [1] | effect on CD86 upregulation in TT-loaded monocytes [2] | T cell-monocyte cell conjugation [3] | caveolin-1 on cell surface of monocytes [4] |
| --- | --- | --- | --- | --- |
| 5′ AAGGAGA UCGACCUGGUCAAC dTdT [ss2] | effectively knocked down | inhibited |  |  |
| 5′ UACAAGAAGGGCAUG GCAGACdTdT [mismatched siRNA] | not significantly knocked down | did not exhibit this inhibitory effect |  |  |
| 5′AACAACAAGGCCAUGG CAGACdTdT [ss1] | effectively knocked down | inhibited |  |  |
| CCCCC[C@@H](O)[C@H]1C(=O)O[C@H](C)[C@@H](O)/C=C/C=C/C=C/C=C/C=C(\C)[C@@H](O)C[C@H](O)C[C@H](O)C[C@H](O)C[C@H](O)C[C@H](O)C[C@@H]1O [Filipin] |  |  | not detected | not detected |
